Source: ChEMBL document CHEMBL4177690, “(E)-3-(3,4,5-Trimethoxyphenyl)-1-(pyridin-4-yl)prop-2-en-1-one, a heterocyclic chalcone is a potent and selective CYP1A1 inhibitor and cancer chemopreventive agent” (Bioorg Med Chem Lett, 2017)

Legend:
Cytochrome P450 1A1 [1] = molecular target: T1, Cytochrome P450 1A1 (Homo sapiens, UniProt P04798); assay: Inhibition of human CYP1A1 expressed in yeast microsomal membranes using 7-ethoxyresorufin as substrate measured after 10 mins by fluorescence assay; format: cell membranes
T1 sequence (P04798 whole entry): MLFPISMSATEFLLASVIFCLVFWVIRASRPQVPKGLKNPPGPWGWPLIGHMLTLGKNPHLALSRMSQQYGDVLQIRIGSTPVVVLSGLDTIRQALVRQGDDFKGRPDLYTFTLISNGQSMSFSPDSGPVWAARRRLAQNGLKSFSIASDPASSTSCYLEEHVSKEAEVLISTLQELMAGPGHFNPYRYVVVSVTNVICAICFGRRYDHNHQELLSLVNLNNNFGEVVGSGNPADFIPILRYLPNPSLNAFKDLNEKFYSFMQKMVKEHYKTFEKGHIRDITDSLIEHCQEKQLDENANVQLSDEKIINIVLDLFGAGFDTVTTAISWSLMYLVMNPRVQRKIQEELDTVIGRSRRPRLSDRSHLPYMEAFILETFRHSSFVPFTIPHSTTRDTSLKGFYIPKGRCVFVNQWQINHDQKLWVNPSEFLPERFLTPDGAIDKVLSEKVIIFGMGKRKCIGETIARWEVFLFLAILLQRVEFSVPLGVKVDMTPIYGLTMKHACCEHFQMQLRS

Cytochrome P450 1B1 [2] = molecular target: T2, Cytochrome P450 1B1 (Homo sapiens, UniProt Q16678); assay: Inhibition of human CYP1B1 expressed in yeast microsomal membranes using 7-ethoxyresorufin as substrate measured after 10 mins by fluorescence assay; format: cell membranes
T2 sequence (Q16678 whole entry): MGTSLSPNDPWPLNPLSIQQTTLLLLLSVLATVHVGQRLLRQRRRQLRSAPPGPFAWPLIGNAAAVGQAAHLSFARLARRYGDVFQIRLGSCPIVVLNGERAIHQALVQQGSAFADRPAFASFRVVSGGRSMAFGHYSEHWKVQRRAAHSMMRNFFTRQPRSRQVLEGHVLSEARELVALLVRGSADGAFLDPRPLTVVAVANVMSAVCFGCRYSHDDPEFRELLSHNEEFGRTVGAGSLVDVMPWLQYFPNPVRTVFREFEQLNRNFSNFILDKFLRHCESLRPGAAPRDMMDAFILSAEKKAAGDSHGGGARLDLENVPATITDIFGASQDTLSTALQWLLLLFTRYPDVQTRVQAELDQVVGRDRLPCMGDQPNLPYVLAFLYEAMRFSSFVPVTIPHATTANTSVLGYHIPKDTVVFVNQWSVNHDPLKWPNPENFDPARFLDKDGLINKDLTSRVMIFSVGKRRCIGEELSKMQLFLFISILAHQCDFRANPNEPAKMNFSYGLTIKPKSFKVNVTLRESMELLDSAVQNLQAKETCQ

Cytochrome P450 1A2 [3] = molecular target: T3, Cytochrome P450 1A2 (Homo sapiens, UniProt P05177); assay: Inhibition of human CYP1A2 expressed in yeast microsomal membranes using 3-cyano-7-ethoxycoumarin as substrate measured after 10 mins by fluorescence assay; format: ADME, cell membranes, Microsomal Membrane
T3 sequence (P05177 whole entry): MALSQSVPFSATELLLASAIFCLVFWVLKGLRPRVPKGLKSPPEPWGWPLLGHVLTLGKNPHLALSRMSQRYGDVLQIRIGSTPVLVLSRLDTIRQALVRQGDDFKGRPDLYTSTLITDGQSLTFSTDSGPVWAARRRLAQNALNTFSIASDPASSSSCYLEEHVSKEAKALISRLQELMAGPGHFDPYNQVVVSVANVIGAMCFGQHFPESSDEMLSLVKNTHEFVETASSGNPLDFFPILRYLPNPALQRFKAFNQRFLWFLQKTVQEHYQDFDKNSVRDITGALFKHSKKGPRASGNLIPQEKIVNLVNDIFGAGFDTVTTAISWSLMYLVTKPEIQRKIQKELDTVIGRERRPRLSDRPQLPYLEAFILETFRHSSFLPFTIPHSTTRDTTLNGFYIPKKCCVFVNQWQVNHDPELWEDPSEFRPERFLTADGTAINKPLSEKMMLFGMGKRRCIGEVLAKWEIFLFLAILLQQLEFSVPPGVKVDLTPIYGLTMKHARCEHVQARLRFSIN

Cytochrome P450 2D6 [4] = molecular target: T4, Cytochrome P450 2D6 (Homo sapiens, UniProt P10635); assay: Inhibition of human CYP2D6 expressed in yeast microsomal membranes using 7-ethoxy-methyloxy-3-cyanocoumarin as substrate measured after 10 mins by fluorescence assay; format: ADME, cell membranes, Microsomal Membrane
Cytochrome P450 2C9 [5] = molecular target: T5, Cytochrome P450 2C9 (Homo sapiens, UniProt P11712); assay: Inhibition of human CYP2C9 expressed in yeast microsomal membranes using 3-cyano-7-ethoxycoumarin as substrate measured after 10 mins by fluorescence assay; format: ADME, cell membranes, Microsomal Membrane
Cytochrome P450 2C19 [6] = molecular target: T6, Cytochrome P450 2C19 (Homo sapiens, UniProt P33261); assay: Inhibition of human CYP2C19 expressed in yeast microsomal membranes using 3-cyano-7-ethoxycoumarin as substrate measured after 10 mins by fluorescence assay; format: ADME, cell membranes, Microsomal Membrane
Cytochrome P450 3A4 [7] = molecular target: T7, Cytochrome P450 3A4 (Homo sapiens, UniProt P08684); assay: Inhibition of human CYP3A4 expressed in yeast microsomal membranes using dibenzylfluorescein as substrate measured after 10 mins by fluorescence assay; format: ADME, cell membranes, Microsomal Membrane
Cytochrome P450 1A1 [8] = molecular target: T1, Cytochrome P450 1A1; assay: Inhibition of recombinant human CYP1A1 expressed in HEK293 cells using 7-ethoxyresorufin as substrate pretreated for 30 mins followed by substrate addition measured for 60 mins by fluorescence assay; format: cell-based
Cytochrome P450 1B1 [9] = molecular target: T2, Cytochrome P450 1B1; assay: Inhibition of recombinant human CYP1B1 expressed in HEK293 cells using 7-ethoxyresorufin as substrate pretreated for 30 mins followed by substrate addition measured for 60 mins by fluorescence assay; format: cell-based
Cytochrome P450 1A2 [10] = molecular target: T3, Cytochrome P450 1A2; assay: Inhibition of recombinant human CYP1A2 expressed in HEK293 cells using 3-cyano-7-ethoxycoumarin as substrate pretreated for 30 mins followed by substrate addition measured for 60 mins by fluorescence assay; format: ADME
Cytochrome P450 2D6 [11] = molecular target: T4, Cytochrome P450 2D6; assay: Inhibition of recombinant human CYP2D6 expressed in HEK293 cells using 7-ethoxy-methyloxy-3-cyanocoumarin as substrate pretreated for 30 mins followed by substrate addition measured for 60 mins by fluorescence assay; format: ADME, cell-based
Cytochrome P450 2C9 [12] = molecular target: T5, Cytochrome P450 2C9; assay: Inhibition of recombinant human CYP2C9 expressed in HEK293 cells using 3-cyano-7-ethoxycoumarin as substrate pretreated for 30 mins followed by substrate addition measured for 60 mins by fluorescence assay; format: ADME
Cytochrome P450 2C19 [13] = molecular target: T6, Cytochrome P450 2C19; assay: Inhibition of recombinant human CYP2C19 expressed in HEK293 cells using 3-cyano-7-ethoxycoumarin as substrate pretreated for 30 mins followed by substrate addition measured for 60 mins by fluorescence assay; format: ADME
Cytochrome P450 3A4 [14] = molecular target: T7, Cytochrome P450 3A4; assay: Inhibition of recombinant human CYP3A4 expressed in HEK293 cells using dibenzylfluorescein as substrate pretreated for 30 mins followed by substrate addition measured for 60 mins by fluorescence assay; format: ADME
Homo sapiens [15] = species on record: Homo sapiens; assay: Selectivity ratio of IC50 for recombinant human CYP1B1 expressed in HEK293 cells to IC50 for recombinant human CYP1A1 expressed in HEK293 cells; format: cell-based
Homo sapiens [16] = species on record: Homo sapiens; assay: Selectivity ratio of IC50 for recombinant human CYP1A2 expressed in HEK293 cells to IC50 for recombinant human CYP1A1 expressed in HEK293 cells; format: cell-based
[17] = molecular target: T8, Aryl hydrocarbon receptor (Homo sapiens, UniProt P35869); assay: Antagonist activity at recombinant human eGFP-fused Ahr expressed in yeast cells co-expressing ARNT assessed as inhibition of benzo(a)pyrene-induced Ahr activation at 1 uM measured after 18 hrs by fluorescence assay; format: cell-based
T8 sequence (P35869 whole entry): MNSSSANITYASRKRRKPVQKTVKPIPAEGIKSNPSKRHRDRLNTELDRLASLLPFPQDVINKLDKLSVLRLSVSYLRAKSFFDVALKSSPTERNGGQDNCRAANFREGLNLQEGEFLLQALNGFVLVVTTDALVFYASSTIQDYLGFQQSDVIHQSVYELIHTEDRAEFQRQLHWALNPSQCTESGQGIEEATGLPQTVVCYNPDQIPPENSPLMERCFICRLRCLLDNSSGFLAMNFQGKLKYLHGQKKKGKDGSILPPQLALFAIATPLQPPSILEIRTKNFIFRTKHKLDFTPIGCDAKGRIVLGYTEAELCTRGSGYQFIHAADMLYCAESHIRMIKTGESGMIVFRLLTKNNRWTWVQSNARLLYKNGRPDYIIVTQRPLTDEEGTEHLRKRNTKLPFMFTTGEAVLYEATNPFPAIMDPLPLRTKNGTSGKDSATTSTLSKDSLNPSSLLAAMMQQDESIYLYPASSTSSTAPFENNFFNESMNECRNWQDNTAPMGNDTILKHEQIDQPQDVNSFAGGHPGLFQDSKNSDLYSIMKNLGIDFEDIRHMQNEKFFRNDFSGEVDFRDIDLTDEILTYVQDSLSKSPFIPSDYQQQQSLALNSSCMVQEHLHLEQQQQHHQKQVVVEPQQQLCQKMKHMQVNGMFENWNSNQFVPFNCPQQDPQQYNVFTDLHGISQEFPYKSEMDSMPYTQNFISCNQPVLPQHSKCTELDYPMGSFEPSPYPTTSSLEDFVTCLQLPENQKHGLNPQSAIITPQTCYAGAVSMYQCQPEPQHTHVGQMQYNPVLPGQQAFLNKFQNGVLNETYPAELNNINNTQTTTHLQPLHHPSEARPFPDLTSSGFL

T7 sequence (P08684 whole entry): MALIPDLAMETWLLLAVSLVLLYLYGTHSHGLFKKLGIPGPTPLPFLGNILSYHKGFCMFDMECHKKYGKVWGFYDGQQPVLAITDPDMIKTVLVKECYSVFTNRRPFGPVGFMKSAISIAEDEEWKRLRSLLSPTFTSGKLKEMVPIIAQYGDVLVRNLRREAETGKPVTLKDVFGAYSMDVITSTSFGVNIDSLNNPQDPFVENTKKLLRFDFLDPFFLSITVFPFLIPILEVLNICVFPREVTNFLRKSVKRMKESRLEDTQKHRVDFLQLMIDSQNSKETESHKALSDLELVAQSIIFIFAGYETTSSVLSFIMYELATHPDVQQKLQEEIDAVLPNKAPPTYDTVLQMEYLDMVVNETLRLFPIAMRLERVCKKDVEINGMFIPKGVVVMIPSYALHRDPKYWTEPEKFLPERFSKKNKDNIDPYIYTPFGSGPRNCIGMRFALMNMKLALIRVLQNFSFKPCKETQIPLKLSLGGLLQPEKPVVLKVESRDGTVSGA
T5 sequence (P11712 whole entry): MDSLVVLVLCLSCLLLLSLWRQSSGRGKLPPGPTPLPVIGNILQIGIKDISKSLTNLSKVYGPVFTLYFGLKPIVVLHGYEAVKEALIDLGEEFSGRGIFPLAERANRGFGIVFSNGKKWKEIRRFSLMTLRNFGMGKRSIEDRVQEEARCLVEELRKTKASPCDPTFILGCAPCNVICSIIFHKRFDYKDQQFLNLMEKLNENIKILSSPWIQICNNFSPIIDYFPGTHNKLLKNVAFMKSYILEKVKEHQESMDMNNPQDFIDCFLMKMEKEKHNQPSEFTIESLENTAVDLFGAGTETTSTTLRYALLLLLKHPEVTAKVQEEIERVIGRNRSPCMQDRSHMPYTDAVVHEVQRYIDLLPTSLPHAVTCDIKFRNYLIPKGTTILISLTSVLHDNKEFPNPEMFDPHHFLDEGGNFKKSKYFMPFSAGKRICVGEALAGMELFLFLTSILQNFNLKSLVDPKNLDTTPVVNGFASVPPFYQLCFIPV
T6 sequence (P33261 whole entry): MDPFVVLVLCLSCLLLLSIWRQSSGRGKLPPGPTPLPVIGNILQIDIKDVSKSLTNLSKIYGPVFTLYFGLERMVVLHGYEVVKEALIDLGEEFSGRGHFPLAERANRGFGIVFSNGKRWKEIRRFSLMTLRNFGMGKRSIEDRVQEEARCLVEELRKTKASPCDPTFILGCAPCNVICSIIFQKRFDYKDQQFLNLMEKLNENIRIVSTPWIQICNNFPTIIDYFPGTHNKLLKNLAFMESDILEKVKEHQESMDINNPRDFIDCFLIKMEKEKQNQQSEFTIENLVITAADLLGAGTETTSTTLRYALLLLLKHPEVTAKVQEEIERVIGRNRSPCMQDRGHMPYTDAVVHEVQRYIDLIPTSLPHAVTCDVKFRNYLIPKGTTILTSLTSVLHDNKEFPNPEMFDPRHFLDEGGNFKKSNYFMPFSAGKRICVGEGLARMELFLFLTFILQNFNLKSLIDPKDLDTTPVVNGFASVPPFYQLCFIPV
T4 sequence (P10635 whole entry): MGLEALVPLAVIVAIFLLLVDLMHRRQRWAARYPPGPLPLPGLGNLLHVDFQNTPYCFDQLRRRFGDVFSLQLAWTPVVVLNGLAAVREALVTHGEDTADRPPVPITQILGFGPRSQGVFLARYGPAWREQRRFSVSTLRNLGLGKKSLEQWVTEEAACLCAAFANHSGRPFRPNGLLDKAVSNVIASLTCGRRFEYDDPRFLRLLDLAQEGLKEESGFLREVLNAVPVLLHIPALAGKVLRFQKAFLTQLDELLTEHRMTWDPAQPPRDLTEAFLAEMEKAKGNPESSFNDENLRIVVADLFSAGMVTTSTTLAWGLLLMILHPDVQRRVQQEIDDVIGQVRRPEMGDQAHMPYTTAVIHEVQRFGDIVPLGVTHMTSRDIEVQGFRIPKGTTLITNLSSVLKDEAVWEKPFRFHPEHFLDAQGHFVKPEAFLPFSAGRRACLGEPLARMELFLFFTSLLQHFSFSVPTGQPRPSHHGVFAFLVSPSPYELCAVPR

Structure (SMILES) | IC50 (Cytochrome P450 1A1 [1]) | IC50 (Cytochrome P450 1B1 [2]) | IC50 (Cytochrome P450 1A2 [3]) | IC50 (Cytochrome P450 2D6 [4]) | IC50 (Cytochrome P450 2C9 [5]) | IC50 (Cytochrome P450 2C19 [6]) | IC50 (Cytochrome P450 3A4 [7]) | IC50 (Cytochrome P450 1A1 [8]) | IC50 (Cytochrome P450 1B1 [9]) | IC50 (Cytochrome P450 1A2 [10]) | IC50 (Cytochrome P450 2D6 [11]) | IC50 (Cytochrome P450 2C9 [12]) | IC50 (Cytochrome P450 2C19 [13]) | IC50 (Cytochrome P450 3A4 [14]) | Ratio IC50 (Homo sapiens [15]) | Ratio IC50 (Homo sapiens [16]) | inhibition (INH) [17]
COc1cccc(/C=C/C(=O)c2ccncc2)c1 | 590 nM | 54 nM | 20 nM | 12000 nM | > 20000 nM | > 20000 nM | > 20000 nM | 620 nM | 60 nM | 20 nM | > 10000 nM | > 10000 nM | > 10000 nM | > 10000 nM | – | – | –
COc1ccccc1/C=C/C(=O)c1ccncc1 | 570 nM | 48 nM | 32 nM | 11000 nM | > 20000 nM | > 20000 nM | > 20000 nM | 610 nM | 60 nM | 32 nM | > 10000 nM | > 10000 nM | > 10000 nM | > 10000 nM | – | – | –
O=C(/C=C/c1cccc2ccccc12)c1ccncc1 | 510 nM | 650 nM | 35 nM | 18000 nM | > 20000 nM | > 20000 nM | > 20000 nM | 550 nM | 750 nM | 28 nM | > 10000 nM | > 10000 nM | > 10000 nM | > 10000 nM | – | – | –
CCOc1cc(/C=C/C(=O)c2ccncc2)cc(OC)c1OC | 63 nM | 3810 nM | 1320 nM | 17000 nM | > 20000 nM | > 20000 nM | > 20000 nM | 63 nM | 4760 nM | 1530 nM | > 10000 nM | > 10000 nM | > 10000 nM | > 10000 nM | < 10 | < 10 | –
CCOc1cc(/C=C/C(=O)c2ccncc2)cc(OCC)c1OCC | 92 nM | 8620 nM | 1190 nM | 14000 nM | > 20000 nM | > 20000 nM | > 20000 nM | 92 nM | 9920 nM | 1090 nM | > 10000 nM | > 10000 nM | > 10000 nM | > 10000 nM | < 10 | < 10 | –
COc1ccc(/C=C/C(=O)c2ccncc2)c(OC)c1OC | 1410 nM | 32 nM | 104 nM | 11000 nM | > 20000 nM | > 20000 nM | > 20000 nM | 1330 nM | 22 nM | 200 nM | > 10000 nM | > 10000 nM | > 10000 nM | > 10000 nM | – | – | Active
